# Reference: patent US11337449B2, “Compositions and their use” (NESTEC S.A., priority 2015, dated 2022)
# What was measured:
# [1] = tested on: neural progenitor cell (NPCs) from E14 mouse neocortex; assay: Neurosphere counts in 96-well plates; format: cell-based; settings: Low (Dose 1: 10 nM); cells grown 2 days
# Experimental: Generation of neural progenitor cell (NPCs) libraries:
# E14 pup brains were harvested and placed in ice cold DPBS(1×)+10% Pen/Strep, then they were dissected using a dissecting microscope. From each pup, one brain hemisphere was placed in 2 ml of Neurobasal media/10% P/S/10× Hepes and another brain hemisphere was placed in another tube.
# The tissue from each tube was aseptically and manually dissociate into single cells, neurobasal complete medium was added and centrifuged at 130G for 5 min. The tissue was then re-suspended in neurobasal complete media with GF and placed in a corning suspension culture dish 100 mm×20 mm (#430591). Cells were passage twice using a 1:3 ratio, after what they were centrifuged (130 g 5 min), resuspended in freezing media (10% DMSO and neurobasal complete media, no GF) and frozen in liquid nitrogen (LN2).
# Plating Cells in 96-Well Plates for Neurosphere Counts and Diameters Only
# 3-4 mLs of cells were taken out of the tilted plate and add to a 15 ml conical. Some of the remaining media was used to rinse down the plate. All remaining media was drawn up and put into a 15 ml conical tube, and Spun at 130G for 5 min. All media was removed. […]
# 1. […] Imaging was carried out using a GE Cytell imager or LSM 710, Zeiss confocal microscope and the diameters of neurospheres with ImageJ software (National Institutes of Health) was analysed.
# [2] = tested on: neural progenitor cell (NPCs) from E14 mouse neocortex; assay: Monolayer culture NPC proliferation assay (EdU incorporation / DAPI); format: cell-based; settings: lowSM (Dose 1: 10 nM); 3 days culture
# Experimental: Monolayer Culture NPC Proliferation Assay (Incorporation of EdU—S Phase Marker)
# After 24 h, it was ensured that cells had attached to the plate then the medium was carefully removed. 500 μL of compound media plus GF. was added. The cells were cultured for 3 days in appropriate media.
# Control and compound media was made with #2 media and contains 29 uM Choline, Low (5 uM) and medium (70 uM) choline media was made with #3 media.
# EDU incorporation was measured using Click-IT® EdU Alexa Fluor® 555 Imaging Kit (Life technologies, #c10338).
# At the end of day 3 EdU was added to each well at 10 μM for 30 minutes prior to fixation.
# For fixation and subsequent immunohistochemical analysis, the medium was removed, the cells were rinsed once with 1×PBS for 5 min, and fixed with 4% PFA in 1×PBS for 15 min at 4° C., then the cells were washed twice with 1×PBS for 5 min, left in 1×PBS, wrapped in foil and leave overnight at 4° C., or staining was proceeded with.
# PBS was removed and enough AB staining solution (1% Goat serum, 1×PBS, and 0.1% triton X) added to cover the bottom, the block was kept at room temp for 1 hour. The cells were stained for EDU. The cells were Incubated for 30 min at room temp, in the dark. The cells were washed with 1×PBS and stained with Dapi 1:5000 ul for 15 min. […]
# [3] = tested on: brain myelination (myelin water fraction); assay: Cross-sectional correlation of infant formula nutrient content with brain myelination (myelin water fraction, mcDESPOT MRI); format: in vivo, human; settings: children up to 5 years fed infant formulas
# Experimental: MRI (Magnetic Resonance Imaging): MRI brain scans of infants and children between 0 and 5 years were acquired using a white matter imaging technique. This technique provides a quantitative measure, the Myelin Water Fraction (MWF), which is a surrogate marker of myelin content in the brain. When mapped as a function of time across early childhood, myelination trajectories can be generated.
# Infant formula composition: six infant formulas fed to infants participating in a study were analyzed for their composition/level of myelin-relevant nutrients.
# Each infant was scanned using the mcDESPOT (multicomponent Driven Equilibrium Single Pulse Observation of T1 and T2) white matter imaging technique Deoni et al. (Magn. Reson. Med. 2008, 60:1372-1387), which provides a quantitative measure of the myelin water fraction (MWF)—a measure of myelin content—at each point throughout the brain. All infants were scanned during natural (i.e. non-sedated) sleep using acoustically-muffled mcDESPOT imaging protocols. Total imaging times ranged from 19 minutes for the youngest toddlers to 24 minutes for the older 4 year-old children.
# Following image alignment, non-brain signal removal, and correction for main and transmit magnetic field (B0 and B1) inhomogeneities, a three-pool signal model (comprising the myelin-associated water; intra-extra axonal water; and a non-exchanging free-water pool) was fit to the mcDESPOT data to derive voxel-wise MWF maps.
# Each child's map was then non-linearly aligned to a study specific template. White matter masks, corresponding to 5 bilateral regions (frontal, temporal, occipital, parietal, and cerebellar WM) as well as the body, genu, and splenium of the corpus callosum were created from common databases, registered to the common template, and superimposed onto each child's MWF map. Mean values for each region were then determined for each child and used for subsequent developmental analysis and trajectory modeling.
# From the cohort described above, children up to 5 years of age that were fed different infant formulas during infancy were included in a large correlation analysis to examine the relationship between formula nutrient composition and brain myelination. The 6 most frequently used formulas in that cohort were analyzed for their nutritional composition. A single general linear model (GLM) was constructed that modeled all quantified nutrients and child age.
# Spearman rank correlations were then calculated between the nutrient content and myelin content value (adjusted for child age) at each image voxel, or point within the brain. Significance was defined as p<0.05 corrected for type 1 error using a cluster based correction approach. An association or trend was defined as p<0.15. […] To reduce the number of nutritional components in the model, we examined the inter-nutritional correlation. Using a conservative threshold of 0.9, we excluded nutritional components that were highly correlated with each other across the various formulas.
substance,measurement,setting,value
Sphingomyelin,"number of neurospheres, Average (Mean)",[1],94
same,neuronal proliferation (DAPI),[2],280
same,association of nutrient with myelination (myelin water fraction) over time in the brain,[3],an association with myelination (myelin water fraction) was observed over time in the brain
